Several values for one entry are separate records, joined by “and”; a condition that tells them apart may be missing. Equal values may be shown once.
Assays:
Test subjects = assay: Experimenting with higher daily dosages: psychostimulant effect in test subjects; format: in vivo, human
Description: While experimenting with forskolin in much higher daily dosages, the inventors discovered new and as yet undiscovered uses for forskolin and Coleus forskohli and its extracts. The novel effects became quite evident and noticeable upon administering 150 mg per day of forskolin in the form of a 20% Coleus forskohli extract. […] The dosages of forskolin that precipitate the best psychostimlant properties seem to be above 100 mg but can be below this level for some highly sensitive people.

individuals = assay: Psychostimulant effect: self-rated wakefulness/alertness before and one hour after administration (Example 1); format: in vivo, human; settings: scale of 1 to 10 (10 greatest), one value per subject, average of three days, 100 mg twice daily as 40% Coleus forskohli extract capsules
Description: The forskolin was administered one hour after waking and one hour before bedtime. Subjects were asked to evaluate their level of wakefulness/alertness on a scale of 1 to 10 (10 being the greatest) both before administration and one hour after administration. […] All of the subjects perceived an increase in their level of wakefulness/alertness both in the morning and in the evening. These times were chosen due to the fact that most people have a greater degree of sleepiness or a greater degree of having problems with mental alertness during these times of the day.

humans = assay: Test of forskolin as anorectic agent in humans; parameters: species or system human; settings: in vivo
Description: Because nearly all psychostimulants have been or are being used as extremely effective appetite suppressants, the inventors decided to test the hypothesis that forskolin would be an effective anorectic agent. […] This anorectic effect is dose dependent and works increasingly until the dosage of 500 mg per day of forskolin. Most tested individuals noticed the appetite suppression effects above 75 mg per day of forskolin; however, a few individuals noticed slight effects down to 30 mg per day.

[1] = test system: overweight individuals who claimed to have a problem controlling their appetite; assay: Appetite suppression: self-rated level of appetite before and after administration (Example 2); format: in vivo, human
Description: The forskolin was administered three times per day for five days. Subjects were asked to evaluate the level of their appetite from a scale of 1 to 10 (10 being the greatest). […] Some of the subjects even reported that they felt no desire to eat within 30 minutes after administration even though before administration they felt “extremely hungry”.

[2] = scale of 1 to 10 (10 greatest), after dose, one value per subject, average of five days, 100 mg sixty minutes before meals, three times per day, 40% extract capsules
[3] = scale of 1 to 10 (10 greatest), before dose, one value per subject, average of five days, 100 mg sixty minutes before meals, three times per day, 40% extract capsules

C=C[C@@]1(C)CC(=O)[C@]2(O)[C@@]3(C)[C@@H](O)CCC(C)(C)[C@@H]3[C@H](O)[C@H](OC(C)=O)[C@@]2(C)O1 [forskolin, Forskolin]
dosages that precipitate the best psychostimulant properties (Test subjects; can be below this level for some highly sensitive people): above 100 mg | untoward central nervous system stimulating effects (jitteriness, nervousness, increased blood pressure, heart rate or respiratory rate) (Test subjects; human, in vivo): did not cause any untoward central nervous system stimulating effects | MBA: level of wakefulness/alertness, morning, before administration (individuals; baseline before dose): 3 (2×) and 2 and 7 (2×) | EBA: level of wakefulness/alertness, evening, before administration (individuals; before evening dose): 6 (2×) and 5 and 7 (2×) | EAA: level of wakefulness/alertness, evening, after administration (individuals; one hour after administration): 7 and 9 and 5 and 10 and 8 | MAA: level of wakefulness/alertness, morning, after administration (individuals; one hour after administration): 5 (2×) and 7 and 8 and 10 | dosage above which most tested individuals noticed the appetite suppression effects (humans): above 75 mg per day | dosage down to which a few individuals noticed slight appetite suppression effects (humans): ≥ 30 mg per day | dosage until which the dose dependent anorectic effect works increasingly (humans): ≤ 500 mg per day | AB: level of appetite, Breakfast, After Administration [1, 2]: 5 and 3 and 4 | AD: level of appetite, Dinner, After Administration [1, 2]: 8 and 3 and 5 | AL: level of appetite, Lunch, After Administration [1, 2]: 7 and 3 and 5 | BB: level of appetite, Breakfast, Before Administration [1, 3]: 6 and 8 and 4 | BD: level of appetite, Dinner, Before Administration [1, 3]: 9 and 10 and 7 | BL: level of appetite, Lunch, Before Administration [1, 3]: 9 and 10 and 8 | time after administration within which some subjects felt no desire to eat ([1]; some of the subjects, "extremely hungry" before administration): ≤ 30 min

Reference: patent publication US20050070601A1, “Psychostimulant Effects of Forskolin Including Anorexia” (CREATIVE COMPOUNDS, LLC, priority 2003, published 2005)
